Measured values from patent US20040087604A1, “Hetero-tricyclic compounds having substituted amino groups” (priority 2001, published 2004).

Test system: IgE production against ovalbumin (OVA)
Assay: Suppressive effect on the IgE production against ovalbumin (OVA); anti-OVA IgE antibody titer (PCA titer)
Type: in vivo
Conditions: BALB/c mice immunized with OVA; oral dose 40 mg/kg for 10 days; titer = n where serum PCA-positive till 2^n dilution
Method: Suppressive Effect on the IgE Production Against Ovalbumin (OVA)
BALB/c mice (female, 8-10 weeks old) and Wistar rats (female, 8-10 weeks old) which were bought from Japan SLC, Inc. (Shizuoka) were used.
BALB/c mice were immunized by an intraperitoneal administration of 0.2 ml suspension of 2 μg of ovalbumin (OVA) and 2 mg of aluminium hydroxide gel in physiological saline. After 10 days, blood was collected from hearts, then sera were separated and stocked at −40° C. till the measurement of IgE antibody titer.
After the compound of the present invention was dissolved or suspended in N,N-dimethylacetoamide, the mixture was diluted 20 times with miglyol 812 neutral oil. The obtained solution was orally administered to mice at 0.1 ml per mouse (dose 40 mg/kg). The administration was continued for 10 days from the immunizing day to the day before the blood collection.
4) Mesurement of Anti-OVA IgE Antibody Titer (PCA Titer)
The obtained mouse serum was 2-fold diluted with physiological saline, then each 50 μl the solution was intradermally injected at dorsal skin of Wistar rats which previously hair cut. […] The rats were sacrified 30 minutes later and the highest dilution giving bluing with a diameter of 5 mm or more was recorded as the PCA titer. […]

Q: For Cc1c(C)c(-c2ccc(NC(C)C)nc2)c(C)c(C)c1-c1ccc(NC(C)C)nc1 [Compound 169], which “PCA (anti-OVA IgE antibody titer, PCA titer)” value is on record?
A: The value was less than 0.
